Assay results from ChEMBL document CHEMBL1909046, “DrugMatrix in vitro pharmacology data”.

What was measured:
[1] = biological target: Sodium-dependent dopamine transporter (Homo sapiens, UniProt Q01959); assay: DRUGMATRIX: Dopamine Transporter radioligand binding (ligand: [125I] RTI-55); type: cell membranes, CHO-K1, Membrane; details: cho-k1; Not Active = under 50% inhibition at 10 µM
[2] = DRUGMATRIX: Phorbol Ester radioligand binding (ligand: [3H] PDBu); type: cell membranes, Mus musculus, ICR, Brain, Membrane; details: Not Active = under 50% inhibition at 10 µM
[3] = DRUGMATRIX: Potassium Channel [KATP] radioligand binding (ligand: [3H] Glyburide); type: cell membranes, Membrane; details: hit-t15; Not Active = under 50% inhibition at 10 µM
[4] = DRUGMATRIX: Calcium Channel Type L, Benzothiazepine radioligand binding (ligand: [3H] Diltiazem); type: cell membranes, Rattus norvegicus, Wistar, Brain, Membrane; details: Not Active = under 50% inhibition at 10 µM
[5] = biological target: cGMP-specific 3',5'-cyclic phosphodiesterase (Homo sapiens, UniProt O76074); assay: DRUGMATRIX: Phosphodiesterase PDE5 enzyme inhibition (substrate: [3H]cGMP + cGMP); type: tissue-based, Platelet; details: platelet; Not Active = under 50% inhibition at 10 µM
[6] = biological target: T1, Alpha-1A adrenergic receptor (Rattus norvegicus, UniProt P43140); assay: DRUGMATRIX: Alpha-1A adrenergic receptor radioligand binding (ligand: prazosin); type: cell membranes, Wistar, Submaxillary gland, Membrane; details: Not Active = under 50% inhibition at 10 µM
T1 sequence (P43140 whole entry): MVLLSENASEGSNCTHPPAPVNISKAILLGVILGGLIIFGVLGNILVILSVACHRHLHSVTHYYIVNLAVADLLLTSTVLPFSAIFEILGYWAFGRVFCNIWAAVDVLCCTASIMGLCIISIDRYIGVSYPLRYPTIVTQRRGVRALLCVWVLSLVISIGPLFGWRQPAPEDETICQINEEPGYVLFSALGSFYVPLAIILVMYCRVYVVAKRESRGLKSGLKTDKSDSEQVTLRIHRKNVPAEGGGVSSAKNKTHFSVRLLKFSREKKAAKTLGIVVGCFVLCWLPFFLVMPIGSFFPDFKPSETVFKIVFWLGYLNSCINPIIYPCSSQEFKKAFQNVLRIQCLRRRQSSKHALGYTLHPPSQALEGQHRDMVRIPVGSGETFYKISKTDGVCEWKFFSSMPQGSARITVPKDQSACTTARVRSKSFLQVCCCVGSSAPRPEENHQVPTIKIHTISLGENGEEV

Sodium-dependent dopamine transporter, sequence (Q01959 whole entry): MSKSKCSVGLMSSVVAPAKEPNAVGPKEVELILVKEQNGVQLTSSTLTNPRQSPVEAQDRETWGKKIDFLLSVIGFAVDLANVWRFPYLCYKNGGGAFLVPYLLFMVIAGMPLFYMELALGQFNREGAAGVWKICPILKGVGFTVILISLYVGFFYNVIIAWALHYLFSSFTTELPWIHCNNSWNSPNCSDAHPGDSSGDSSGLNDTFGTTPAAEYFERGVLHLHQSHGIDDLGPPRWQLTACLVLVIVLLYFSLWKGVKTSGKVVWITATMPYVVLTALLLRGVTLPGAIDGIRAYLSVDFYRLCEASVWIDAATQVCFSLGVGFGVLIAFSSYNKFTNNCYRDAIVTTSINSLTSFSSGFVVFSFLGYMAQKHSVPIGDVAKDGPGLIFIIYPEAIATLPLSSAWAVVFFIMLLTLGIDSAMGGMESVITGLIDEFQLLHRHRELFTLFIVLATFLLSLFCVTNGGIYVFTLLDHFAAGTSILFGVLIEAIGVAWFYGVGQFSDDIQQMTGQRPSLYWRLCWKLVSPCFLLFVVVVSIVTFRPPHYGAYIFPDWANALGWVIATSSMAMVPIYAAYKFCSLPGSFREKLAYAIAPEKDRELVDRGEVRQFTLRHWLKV

CO[C@H]1O[C@@H]2O[C@@]3(C)CC[C@H]4[C@H](C)CC[C@@H]([C@H]1C)[C@@]24OO3
Not Active: IC50 [1] | IC50 [2] | Ki [2] | IC50 [3] | Ki [3] | IC50 [4] | Ki [4] | IC50 [5] | IC50 [6]

O=c1[nH]c2ccccc2c2ccccc12
Not Active: IC50 [1] | IC50 [2] | Ki [2] | IC50 [3] | Ki [3] | IC50 [4] | Ki [4] | IC50 [5] | IC50 [6]

COc1ccc(C[C@H](N)C(=O)N[C@H]2[C@@H](O)[C@H](n3cnc4c(N(C)C)ncnc43)O[C@@H]2CO)cc1 [PUROMYCIN]
Not Active: IC50 [1] | IC50 [2] | Ki [2] | IC50 [3] | Ki [3] | IC50 [4] | Ki [4] | IC50 [5] | IC50 [6]

CHROMIC CHLORIDE
Not Active: IC50 [1] | Ki [1] | IC50 [2] | Ki [2] | IC50 [3] | Ki [3] | IC50 [4] | Ki [4] | IC50 [5] | Ki [5] | IC50 [6] | Ki [6]

C[C@@H]1[C@H](O)[C@@H](C)/C=C/C=C/C=C/C=C/C=C/C=C/C=C/[C@H](O[C@@H]2O[C@H](C)[C@@H](O)[C@H](N)[C@@H]2O)C[C@@H]2O[C@](O)(C[C@@H](O)C[C@@H](O)[C@H](O)CC[C@@H](O)C[C@@H](O)CC(=O)O[C@H]1C)C[C@H](O)[C@H]2C(=O)O [AMPHOTERICIN B]
Not Active: IC50 [1] | IC50 [2] | Ki [2] | IC50 [3] | Ki [3] | IC50 [4] | Ki [4] | IC50 [5] | IC50 [6]

Cc1c(N)nc([C@H](CC(N)=O)NC[C@H](N)C(N)=O)nc1C(=O)N[C@H](C(=O)N[C@H](C)[C@@H](O)[C@H](C)C(=O)N[C@H](C(=O)NCCc1nc(-c2nc(C(=O)NCCC[S+](C)C)cs2)cs1)[C@@H](C)O)[C@@H](O[C@@H]1O[C@@H](CO)[C@@H](O)[C@H](O)[C@@H]1O[C@H]1O[C@H](CO)[C@@H](O)[C@H](OC(N)=O)[C@@H]1O)c1c[nH]cn1.[Br-] [BLEOMYCIN A2]
Not Active: IC50 [1] | IC50 [2] | Ki [2] | IC50 [3] | Ki [3] | IC50 [4] | Ki [4] | IC50 [5] | IC50 [6]

O=C(O)CNCP(=O)(O)O [GLYPHOSATE]
Not Active: IC50 [1] | IC50 [2] | Ki [2] | IC50 [3] | Ki [3] | IC50 [4] | Ki [4] | IC50 [5] | IC50 [6]

Nc1nc(F)nc2c1ncn2[C@@H]1O[C@H](CO)[C@@H](O)[C@@H]1O [FLUDARABINE]
Not Active: IC50 [1] | IC50 [2] | Ki [2] | IC50 [3] | Ki [3] | IC50 [4] | Ki [4] | IC50 [5] | IC50 [6]

NCC(CC(=O)O)c1ccc(Cl)cc1 (centres undefined) [BACLOFEN]
Not Active: IC50 [1] | IC50 [2] | Ki [2] | IC50 [3] | Ki [3] | IC50 [4] | Ki [4] | IC50 [5] | IC50 [6]

O=C(Nc1ccc(Cl)c(Cl)c1)c1cc(Cl)cc(Cl)c1O [3,3',4',5-TETRACHLOROSALICYLANILIDE]
Not Active: IC50 [1] | IC50 [2] | Ki [2] | IC50 [3] | Ki [3] | IC50 [4] | Ki [4] | IC50 [5] | IC50 [6]

Oc1ccccc1 [PHENOL]
Not Active: IC50 [1] | IC50 [2] | Ki [2] | IC50 [3] | Ki [3] | IC50 [4] | Ki [4] | IC50 [5] | IC50 [6]

CC(C)NCC(O)COc1ccc(CC(N)=O)cc1 (centres undefined) [ATENOLOL]
Not Active: IC50 [1] | IC50 [2] | Ki [2] | IC50 [3] | Ki [3] | IC50 [4] | Ki [4] | IC50 [5] | IC50 [6]

CNC[C@H](O)c1ccc(O)c(O)c1 [EPINEPHRINE]
Not Active: IC50 [1] | IC50 [2] | Ki [2] | IC50 [3] | Ki [3] | IC50 [4] | Ki [4] | IC50 [5]
